Results taken from ChEMBL document CHEMBL3621201, “Improving the Selectivity of Engineered Protease Inhibitors: Optimizing the P2 Prime Residue Using a Versatile Cyclic Peptide Library” (J Med Chem, 2015).
Calls of active or inactive are those of the source. The calls are words filed in the database; no cut-off is given here. Bridge positions count the residues as written; N and C are the ends. Square brackets hold non-standard residues; d marks the D form. Peptide text beside a SMILES is read from it. Bip = N[C@@H](Cc1ccc(-c2ccccc2)cc1)C(=O)O

Legend:
[1] = biological target: Coagulation factor IX (Homo sapiens) (UniProt P00740); assay: Inhibition of factor 9a-beta (unknown origin) at 25 uM using Ac-QGRpNA substrate by spectrophotometry method
Coagulation factor IX (Homo sapiens), sequence (P00740 47-191 limits assumed): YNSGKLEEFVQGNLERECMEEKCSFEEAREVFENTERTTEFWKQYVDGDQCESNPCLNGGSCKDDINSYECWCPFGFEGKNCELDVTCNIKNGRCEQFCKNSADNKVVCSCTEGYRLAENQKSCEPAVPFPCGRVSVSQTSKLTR
Coagulation factor IX (Homo sapiens), sequence (P00740 227-461 limits assumed): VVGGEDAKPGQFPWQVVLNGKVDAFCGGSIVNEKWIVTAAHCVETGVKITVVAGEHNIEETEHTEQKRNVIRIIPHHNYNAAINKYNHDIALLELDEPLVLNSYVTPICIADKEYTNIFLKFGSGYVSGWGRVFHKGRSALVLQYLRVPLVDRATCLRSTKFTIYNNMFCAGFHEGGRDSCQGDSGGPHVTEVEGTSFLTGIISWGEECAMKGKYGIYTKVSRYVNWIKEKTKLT

[2] = biological target: Serine protease 1 (Homo sapiens) (UniProt P07477); assay: Inhibition of beta-trypsin (unknown origin) at 25 nM using Bz-FVRpNA substrate by spectrophotometry method
Serine protease 1 (Homo sapiens), sequence (P07477 whole entry): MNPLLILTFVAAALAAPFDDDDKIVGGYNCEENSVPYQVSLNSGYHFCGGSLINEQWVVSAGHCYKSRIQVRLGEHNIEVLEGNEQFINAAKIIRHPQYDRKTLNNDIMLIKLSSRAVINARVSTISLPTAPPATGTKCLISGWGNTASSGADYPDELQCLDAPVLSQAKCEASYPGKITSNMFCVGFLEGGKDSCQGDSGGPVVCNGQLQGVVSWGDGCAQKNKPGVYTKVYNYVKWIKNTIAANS

Kallikrein-4 = Kallikrein-4 (Homo sapiens, UniProt Q9Y5K2); assay: Inhibition of KLK4 (unknown origin) expressed in Sf9 cells at 25 nM using FVQRpNA substrate by spectrophotometry method
Kallikrein-4, sequence (Q9Y5K2 whole entry): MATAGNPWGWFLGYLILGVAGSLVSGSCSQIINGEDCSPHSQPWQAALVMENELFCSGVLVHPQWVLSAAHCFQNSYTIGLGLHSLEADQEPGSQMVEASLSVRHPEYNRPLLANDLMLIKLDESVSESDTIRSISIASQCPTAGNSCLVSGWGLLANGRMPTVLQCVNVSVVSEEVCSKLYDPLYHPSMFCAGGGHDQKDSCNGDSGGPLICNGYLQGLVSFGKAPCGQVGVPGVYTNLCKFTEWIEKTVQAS

[3] = biological target: Kallikrein-5 (Homo sapiens) (UniProt Q9Y337); assay: Inhibition of KLK5 (unknown origin) expressed in Pichia pastoris X33 at 50 nM using Ac-YRSR-pNA by spectrophotometry method
Kallikrein-5 (Homo sapiens), sequence (Q9Y337 whole entry): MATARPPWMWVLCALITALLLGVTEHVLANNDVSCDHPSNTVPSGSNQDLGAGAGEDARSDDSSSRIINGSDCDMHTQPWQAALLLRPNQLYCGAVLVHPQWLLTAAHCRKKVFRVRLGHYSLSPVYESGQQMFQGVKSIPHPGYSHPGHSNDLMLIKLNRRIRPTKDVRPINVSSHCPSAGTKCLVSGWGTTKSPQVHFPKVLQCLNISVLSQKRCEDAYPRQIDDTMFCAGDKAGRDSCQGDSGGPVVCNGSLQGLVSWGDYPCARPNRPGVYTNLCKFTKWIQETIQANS

Homo sapiens = species on record: Homo sapiens; assay: Inhibition of alpha chymotrypsin (unknown origin) at 25 uM using Ac-GRPY-pNA by spectrophotometry method
Prothrombin = Prothrombin (Homo sapiens, UniProt P00734); assay: Inhibition of alpha-thrombin (unknown origin) at 25 uM using Ac-ATPRpNA substrate by spectrophotometry method
Kallikrein-7 = Kallikrein-7 (Homo sapiens, UniProt P49862); assay: Inhibition of KLK7 (unknown origin) expressed in Pichia pastoris X33 at 200 nM using KHLY-pNA substrate by spectrophotometry method
Kallikrein-7, sequence (P49862 30-253 limits assumed): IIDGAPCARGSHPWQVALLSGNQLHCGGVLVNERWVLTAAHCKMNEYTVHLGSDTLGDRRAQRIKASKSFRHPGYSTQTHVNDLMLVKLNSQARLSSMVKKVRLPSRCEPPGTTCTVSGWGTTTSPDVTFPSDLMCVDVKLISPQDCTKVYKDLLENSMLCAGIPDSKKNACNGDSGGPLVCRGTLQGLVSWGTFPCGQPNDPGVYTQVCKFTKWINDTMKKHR

Plasminogen = Plasminogen (Homo sapiens, UniProt P00747); assay: Inhibition of plasmin (unknown origin) at 50 uM using Ac-RM(O2)YRpNA substrate by spectrophotometry method
Plasminogen, sequence (P00747 97-580 limits assumed): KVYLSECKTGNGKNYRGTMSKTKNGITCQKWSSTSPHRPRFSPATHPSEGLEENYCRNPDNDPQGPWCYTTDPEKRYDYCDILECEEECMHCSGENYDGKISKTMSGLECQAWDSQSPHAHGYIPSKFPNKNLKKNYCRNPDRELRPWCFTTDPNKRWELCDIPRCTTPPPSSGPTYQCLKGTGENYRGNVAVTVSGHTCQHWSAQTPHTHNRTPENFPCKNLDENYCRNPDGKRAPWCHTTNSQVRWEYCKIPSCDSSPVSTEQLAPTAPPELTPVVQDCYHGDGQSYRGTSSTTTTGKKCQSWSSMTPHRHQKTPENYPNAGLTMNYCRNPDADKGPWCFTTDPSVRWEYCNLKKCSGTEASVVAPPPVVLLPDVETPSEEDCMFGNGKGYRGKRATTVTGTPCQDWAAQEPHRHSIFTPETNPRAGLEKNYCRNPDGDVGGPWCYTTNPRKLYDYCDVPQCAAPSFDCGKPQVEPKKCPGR
Plasminogen, sequence (P00747 581-810 limits assumed): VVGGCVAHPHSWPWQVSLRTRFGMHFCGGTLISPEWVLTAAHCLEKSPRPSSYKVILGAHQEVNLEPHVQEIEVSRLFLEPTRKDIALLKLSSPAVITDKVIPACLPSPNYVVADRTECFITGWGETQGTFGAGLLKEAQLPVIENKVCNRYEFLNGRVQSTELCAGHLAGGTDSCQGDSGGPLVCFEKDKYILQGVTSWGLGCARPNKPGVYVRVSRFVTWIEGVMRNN

[4] = biological target: T1, Coagulation factor XII (Homo sapiens) (UniProt P00748); assay: Inhibition of factor 12a-alpha (unknown origin) at 10 uM using Ac-QRFRpNA substrate by spectrophotometry method
T1 sequence (whole entry): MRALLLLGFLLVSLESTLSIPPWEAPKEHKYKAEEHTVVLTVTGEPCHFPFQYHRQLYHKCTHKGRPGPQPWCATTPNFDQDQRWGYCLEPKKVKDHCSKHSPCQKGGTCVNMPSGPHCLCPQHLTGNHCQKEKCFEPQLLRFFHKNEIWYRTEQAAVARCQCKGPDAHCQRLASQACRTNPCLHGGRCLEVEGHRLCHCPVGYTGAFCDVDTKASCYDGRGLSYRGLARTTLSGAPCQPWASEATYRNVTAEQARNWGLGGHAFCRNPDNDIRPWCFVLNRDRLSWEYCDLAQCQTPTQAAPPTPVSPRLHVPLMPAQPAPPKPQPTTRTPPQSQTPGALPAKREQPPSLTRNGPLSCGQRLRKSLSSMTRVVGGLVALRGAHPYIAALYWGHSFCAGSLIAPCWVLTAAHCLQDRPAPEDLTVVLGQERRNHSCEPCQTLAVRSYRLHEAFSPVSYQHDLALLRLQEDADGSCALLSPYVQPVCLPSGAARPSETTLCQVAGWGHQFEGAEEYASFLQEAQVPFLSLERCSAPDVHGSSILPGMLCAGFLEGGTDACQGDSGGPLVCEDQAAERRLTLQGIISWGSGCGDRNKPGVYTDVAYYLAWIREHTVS

[5] = biological target: Coagulation factor XI (Homo sapiens) (UniProt P03951); assay: Inhibition of factor 11a (unknown origin) at 10 uM using Bz-FVRpNA substrate by spectrophotometry method
Coagulation factor XI (Homo sapiens), sequence (P03951 19-387 limits assumed): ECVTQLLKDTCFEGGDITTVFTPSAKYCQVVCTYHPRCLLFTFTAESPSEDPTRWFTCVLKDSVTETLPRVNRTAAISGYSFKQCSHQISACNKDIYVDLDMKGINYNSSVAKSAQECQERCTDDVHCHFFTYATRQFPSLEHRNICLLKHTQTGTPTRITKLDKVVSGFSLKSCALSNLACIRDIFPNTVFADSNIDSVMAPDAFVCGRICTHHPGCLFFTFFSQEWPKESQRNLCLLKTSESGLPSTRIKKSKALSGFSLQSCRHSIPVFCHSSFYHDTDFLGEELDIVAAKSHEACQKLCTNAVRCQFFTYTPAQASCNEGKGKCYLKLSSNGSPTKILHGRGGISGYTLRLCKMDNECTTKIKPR
Coagulation factor XI (Homo sapiens), sequence (P03951 388-625 limits assumed): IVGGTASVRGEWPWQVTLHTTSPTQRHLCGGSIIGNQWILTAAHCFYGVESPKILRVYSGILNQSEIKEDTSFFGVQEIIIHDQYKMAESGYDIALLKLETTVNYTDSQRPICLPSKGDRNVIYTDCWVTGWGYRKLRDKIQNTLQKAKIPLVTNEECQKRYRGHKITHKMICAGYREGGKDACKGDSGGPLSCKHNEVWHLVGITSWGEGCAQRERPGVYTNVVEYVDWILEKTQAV

[6] = biological target: T2, Suppressor of tumorigenicity 14 protein (Homo sapiens) (UniProt Q9Y5Y6); assay: Inhibition of matriptase (unknown origin) at 10 uM using Ac-RQFRpNA substrate by spectrophotometry method
T2 sequence (whole entry): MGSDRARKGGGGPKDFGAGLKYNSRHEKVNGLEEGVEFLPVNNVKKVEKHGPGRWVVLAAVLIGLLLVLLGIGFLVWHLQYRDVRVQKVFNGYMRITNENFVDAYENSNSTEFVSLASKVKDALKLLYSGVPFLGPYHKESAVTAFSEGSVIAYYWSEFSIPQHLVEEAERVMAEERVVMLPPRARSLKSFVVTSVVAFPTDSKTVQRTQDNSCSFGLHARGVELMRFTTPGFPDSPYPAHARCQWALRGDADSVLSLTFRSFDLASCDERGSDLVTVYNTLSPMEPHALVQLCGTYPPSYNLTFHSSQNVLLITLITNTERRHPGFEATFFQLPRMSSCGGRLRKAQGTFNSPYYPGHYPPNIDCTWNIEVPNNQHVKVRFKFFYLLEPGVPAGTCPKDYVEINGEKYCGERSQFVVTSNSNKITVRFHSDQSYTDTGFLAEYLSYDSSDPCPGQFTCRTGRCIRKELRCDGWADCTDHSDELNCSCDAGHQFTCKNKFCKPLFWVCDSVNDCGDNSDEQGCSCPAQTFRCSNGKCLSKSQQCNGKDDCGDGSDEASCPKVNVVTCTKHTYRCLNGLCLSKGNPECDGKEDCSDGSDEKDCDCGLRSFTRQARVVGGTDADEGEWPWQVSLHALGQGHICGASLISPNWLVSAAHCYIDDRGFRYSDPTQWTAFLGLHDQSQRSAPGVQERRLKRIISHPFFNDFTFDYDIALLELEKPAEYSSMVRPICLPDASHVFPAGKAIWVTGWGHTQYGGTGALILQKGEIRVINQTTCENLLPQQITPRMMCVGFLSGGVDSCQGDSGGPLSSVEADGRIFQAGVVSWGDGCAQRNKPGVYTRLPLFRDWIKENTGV

CC[C@H](C)[C@@H]1NC(=O)[C@@H]2CCCN2C(=O)[C@@H]2CCCN2C(=O)[C@H](CCC(=O)O)NC(=O)[C@H](CO)NC(=O)[C@H](CCCNC(=N)N)NC(=O)[C@H]([C@@H](C)O)NC(=O)[C@@H]2CSSC[C@H](NC1=O)C(=O)N[C@@H](CC(N)=O)C(=O)N1CCC[C@H]1C(=O)N[C@@H](CC(N)=O)C(=O)NCC(=O)N[C@@H]([C@@H](C)O)C(=O)N2 (cyclo(CNPNGTCTRSEPPI); disulfide 1-7)
inhibition [1]: 54% | inhibition [2]: inactive | inhibition (Kallikrein-4): inactive

CC[C@H](C)[C@@H]1NC(=O)[C@@H]2CCCN2C(=O)[C@@H]2CCCN2C(=O)[C@H](Cc2ccccc2)NC(=O)[C@H](CO)NC(=O)[C@H](CCCNC(=N)N)NC(=O)[C@H]([C@@H](C)O)NC(=O)[C@@H]2CSSC[C@H](NC1=O)C(=O)N[C@@H](CC(N)=O)C(=O)N1CCC[C@H]1C(=O)N[C@@H](CC(N)=O)C(=O)NCC(=O)N[C@@H]([C@@H](C)O)C(=O)N2 (cyclo(CNPNGTCTRSFPPI); disulfide 1-7)
inhibition [3]: Active | inhibition (Homo sapiens): 52% | inhibition (Kallikrein-4): Active | inhibition (Prothrombin): 41%

CC[C@H](C)[C@@H]1NC(=O)[C@@H]2CCCN2C(=O)[C@@H]2CCCN2C(=O)CNC(=O)[C@H](CO)NC(=O)[C@H](CCCNC(=N)N)NC(=O)[C@H]([C@@H](C)O)NC(=O)[C@@H]2CSSC[C@H](NC1=O)C(=O)N[C@@H](CC(N)=O)C(=O)N1CCC[C@H]1C(=O)N[C@@H](CC(N)=O)C(=O)NCC(=O)N[C@@H]([C@@H](C)O)C(=O)N2 (cyclo(CNPNGTCTRSGPPI); disulfide 1-7)
inhibition [2]: inactive

CC[C@H](C)[C@@H]1NC(=O)[C@@H]2CCCN2C(=O)[C@@H]2CCCN2C(=O)[C@H](Cc2cnc[nH]2)NC(=O)[C@H](CO)NC(=O)[C@H](CCCNC(=N)N)NC(=O)[C@H]([C@@H](C)O)NC(=O)[C@@H]2CSSC[C@H](NC1=O)C(=O)N[C@@H](CC(N)=O)C(=O)N1CCC[C@H]1C(=O)N[C@@H](CC(N)=O)C(=O)NCC(=O)N[C@@H]([C@@H](C)O)C(=O)N2 (cyclo(CNPNGTCTRSHPPI); disulfide 1-7)
inhibition [3]: inactive | inhibition (Kallikrein-7): Active

CC[C@H](C)[C@@H]1NC(=O)[C@@H]2CCCN2C(=O)[C@@H]2CCCN2C(=O)[C@H](CCCCN)NC(=O)[C@H](CO)NC(=O)[C@H](CCCNC(=N)N)NC(=O)[C@H]([C@@H](C)O)NC(=O)[C@@H]2CSSC[C@H](NC1=O)C(=O)N[C@@H](CC(N)=O)C(=O)N1CCC[C@H]1C(=O)N[C@@H](CC(N)=O)C(=O)NCC(=O)N[C@@H]([C@@H](C)O)C(=O)N2 (cyclo(CNPNGTCTRSKPPI); disulfide 1-7)
inhibition (Plasminogen): 60% | inhibition [1]: 43%

CC[C@H](C)[C@@H]1NC(=O)[C@@H]2CCCN2C(=O)[C@@H]2CCCN2C(=O)[C@H](CC(C)C)NC(=O)[C@H](CO)NC(=O)[C@H](CCCNC(=N)N)NC(=O)[C@H]([C@@H](C)O)NC(=O)[C@@H]2CSSC[C@H](NC1=O)C(=O)N[C@@H](CC(N)=O)C(=O)N1CCC[C@H]1C(=O)N[C@@H](CC(N)=O)C(=O)NCC(=O)N[C@@H]([C@@H](C)O)C(=O)N2 (cyclo(CNPNGTCTRSLPPI); disulfide 1-7)
inhibition [2]: 52%

CC[C@H](C)[C@@H]1NC(=O)[C@@H]2CCCN2C(=O)[C@@H]2CCCN2C(=O)[C@@H]2CCCN2C(=O)[C@H](CO)NC(=O)[C@H](CCCNC(=N)N)NC(=O)[C@H]([C@@H](C)O)NC(=O)[C@@H]2CSSC[C@H](NC1=O)C(=O)N[C@@H](CC(N)=O)C(=O)N1CCC[C@H]1C(=O)N[C@@H](CC(N)=O)C(=O)NCC(=O)N[C@@H]([C@@H](C)O)C(=O)N2 (cyclo(CNPNGTCTRSPPPI); disulfide 1-7)
inhibition [2]: inactive

CC[C@H](C)[C@@H]1NC(=O)[C@@H]2CCCN2C(=O)[C@@H]2CCCN2C(=O)[C@H](CCC(N)=O)NC(=O)[C@H](CO)NC(=O)[C@H](CCCNC(=N)N)NC(=O)[C@H]([C@@H](C)O)NC(=O)[C@@H]2CSSC[C@H](NC1=O)C(=O)N[C@@H](CC(N)=O)C(=O)N1CCC[C@H]1C(=O)N[C@@H](CC(N)=O)C(=O)NCC(=O)N[C@@H]([C@@H](C)O)C(=O)N2 (cyclo(CNPNGTCTRSQPPI); disulfide 1-7)
inhibition [3]: inactive | inhibition (Kallikrein-7): Active

CC[C@H](C)[C@@H]1NC(=O)[C@@H]2CCCN2C(=O)[C@@H]2CCCN2C(=O)[C@H](CCCNC(=N)N)NC(=O)[C@H](CO)NC(=O)[C@H](CCCNC(=N)N)NC(=O)[C@H]([C@@H](C)O)NC(=O)[C@@H]2CSSC[C@H](NC1=O)C(=O)N[C@@H](CC(N)=O)C(=O)N1CCC[C@H]1C(=O)N[C@@H](CC(N)=O)C(=O)NCC(=O)N[C@@H]([C@@H](C)O)C(=O)N2 (cyclo(CNPNGTCTRSRPPI); disulfide 1-7)
inhibition (Plasminogen): 23% | inhibition [1]: 43% | inhibition (Homo sapiens): 57% | inhibition [2]: 65% | inhibition (Kallikrein-4): Active

CC[C@H](C)[C@@H]1NC(=O)[C@@H]2CCCN2C(=O)[C@@H]2CCCN2C(=O)[C@H](CO)NC(=O)[C@H](CO)NC(=O)[C@H](CCCNC(=N)N)NC(=O)[C@H]([C@@H](C)O)NC(=O)[C@@H]2CSSC[C@H](NC1=O)C(=O)N[C@@H](CC(N)=O)C(=O)N1CCC[C@H]1C(=O)N[C@@H](CC(N)=O)C(=O)NCC(=O)N[C@@H]([C@@H](C)O)C(=O)N2 (cyclo(CNPNGTCTRSSPPI); disulfide 1-7)
inhibition [3]: inactive | inhibition (Kallikrein-7): Active

CC[C@H](C)[C@@H]1NC(=O)[C@@H]2CCCN2C(=O)[C@@H]2CCCN2C(=O)[C@H](C(C)C)NC(=O)[C@H](CO)NC(=O)[C@H](CCCNC(=N)N)NC(=O)[C@H]([C@@H](C)O)NC(=O)[C@@H]2CSSC[C@H](NC1=O)C(=O)N[C@@H](CC(N)=O)C(=O)N1CCC[C@H]1C(=O)N[C@@H](CC(N)=O)C(=O)NCC(=O)N[C@@H]([C@@H](C)O)C(=O)N2 (cyclo(CNPNGTCTRSVPPI); disulfide 1-7)
inhibition (Plasminogen): 25% | inhibition [4]: 80% | inhibition (Homo sapiens): 76% | inhibition [5]: 65% | inhibition [2]: 75% | inhibition (Kallikrein-4): 92% | inhibition [6]: 54%

CC[C@H](C)[C@@H]1NC(=O)[C@@H]2CCCN2C(=O)[C@@H]2CCCN2C(=O)[C@H](Cc2c[nH]c3ccccc23)NC(=O)[C@H](CO)NC(=O)[C@H](CCCNC(=N)N)NC(=O)[C@H]([C@@H](C)O)NC(=O)[C@@H]2CSSC[C@H](NC1=O)C(=O)N[C@@H](CC(N)=O)C(=O)N1CCC[C@H]1C(=O)N[C@@H](CC(N)=O)C(=O)NCC(=O)N[C@@H]([C@@H](C)O)C(=O)N2 (cyclo(CNPNGTCTRSWPPI); disulfide 1-7)
inhibition [3]: Active | inhibition [4]: 87% | inhibition (Homo sapiens): 63%

CC[C@H](C)[C@@H]1NC(=O)[C@@H]2CCCN2C(=O)[C@@H]2CCCN2C(=O)[C@H](Cc2ccc(-c3ccccc3)cc2)NC(=O)[C@H](CO)NC(=O)[C@H](CCCNC(=N)N)NC(=O)[C@H]([C@@H](C)O)NC(=O)[C@@H]2CSSC[C@H](NC1=O)C(=O)N[C@@H](CC(N)=O)C(=O)N1CCC[C@H]1C(=O)N[C@@H](CC(N)=O)C(=O)NCC(=O)N[C@@H]([C@@H](C)O)C(=O)N2 (cyclo([Bip]PPICNPNGTCTRS); disulfide 5-11)
inhibition [3]: Active | inhibition [4]: 80% | inhibition (Kallikrein-4): Active
